Consider 22 compounds from patent US12187706B2, “NLRP3 modulators” (INNATE TUMOR IMMUNITY, INC., priority 2019, dated 2025).

Common to all, as to assay type: cell-based
One assay has as its target T1, NLRP3 (Homo sapiens, UniProt Q96P20).
T1 construct: host or cells: PMA-differentiated THP-1 cells
As to the kind of experiment: Measurement of IL-1β production in PMA-differentiated THP-1 cells (NLRP3 hIL1B). A digest of the protocol: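 THP-1 cells differentiated with PMA, then replated in RPMI with 2% FBS and exposed to compound for 4 h (alternative: 2 h; hTRF protocol: 2 h at 37 °C, top concentration 10 μM). Supernatant IL-1β was quantified by ELISA or HTRF. Final DMSO 1%, with vehicle control.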

A further assay deals with T2, human TLR7 (Homo sapiens, UniProt Q9NYK1).
T2 construct: host or cells: human HEK-Blue cells with NF-kB/AP1-inducible SEAP reporter
T2 sequence (Q9NYK1 27-1049): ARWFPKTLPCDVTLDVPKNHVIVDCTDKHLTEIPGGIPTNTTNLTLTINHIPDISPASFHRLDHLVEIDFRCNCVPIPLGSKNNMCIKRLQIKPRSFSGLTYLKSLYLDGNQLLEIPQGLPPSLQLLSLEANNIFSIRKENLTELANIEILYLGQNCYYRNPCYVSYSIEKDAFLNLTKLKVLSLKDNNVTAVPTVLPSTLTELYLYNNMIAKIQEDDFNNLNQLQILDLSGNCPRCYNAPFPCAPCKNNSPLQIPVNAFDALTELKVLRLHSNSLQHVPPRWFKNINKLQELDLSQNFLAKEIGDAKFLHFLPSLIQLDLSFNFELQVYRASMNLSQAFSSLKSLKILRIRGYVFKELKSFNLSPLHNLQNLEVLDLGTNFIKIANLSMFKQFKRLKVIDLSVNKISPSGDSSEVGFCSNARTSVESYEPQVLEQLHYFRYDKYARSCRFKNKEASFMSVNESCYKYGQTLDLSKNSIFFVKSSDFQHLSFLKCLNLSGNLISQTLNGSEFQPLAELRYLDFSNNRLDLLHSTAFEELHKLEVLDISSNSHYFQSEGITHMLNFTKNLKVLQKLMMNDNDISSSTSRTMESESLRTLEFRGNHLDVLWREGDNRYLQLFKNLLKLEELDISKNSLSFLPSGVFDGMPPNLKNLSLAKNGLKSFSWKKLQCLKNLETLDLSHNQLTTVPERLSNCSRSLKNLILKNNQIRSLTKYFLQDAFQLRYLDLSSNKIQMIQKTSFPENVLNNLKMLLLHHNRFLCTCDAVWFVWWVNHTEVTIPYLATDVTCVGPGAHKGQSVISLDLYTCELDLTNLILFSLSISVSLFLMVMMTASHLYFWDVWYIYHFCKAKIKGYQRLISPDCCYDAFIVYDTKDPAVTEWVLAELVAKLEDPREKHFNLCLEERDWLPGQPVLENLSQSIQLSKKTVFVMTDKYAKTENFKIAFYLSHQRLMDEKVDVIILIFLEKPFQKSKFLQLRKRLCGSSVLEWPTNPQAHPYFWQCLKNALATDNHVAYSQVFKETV
As to the kind of experiment: In vitro human TLR7 reporter assay (HEK-Blue, NF-kB/AP1-inducible SEAP). The following applies: HEK-Blue TLR7 cells, SEAP reporter; read-out: TLR7 Agonist EC50 value. The method, then:
(§1) In Vitro Human TLR7 and TLR8 Binding Reporter Assays Logarithmically-growing human HEK-Blue cells co-expressing a TLR7 or TLR8 gene and a NF-kB/AP1-inducible SEAP (secreted embryonic alkaline phosphatase; […] Cellular SEAP production is measured using an Envision plate reader instrument thirty minutes after adding freshly-made Quanti-Blue reagent (prepared by following manufacturer instructions; Invivogen, San Diego, CA) to the HEK-Blue TLR Nf-kB-SEAP cell reactions. All EC50 values (half-maximal effective concentration) are determined using proprietary data analysis software.

The target of the next assay is T3, human TLR8 (Homo sapiens, UniProt Q9NR97).
T3 construct: host or cells: human HEK-Blue cells with NF-kB/AP1-inducible SEAP reporter
T3 sequence (Q9NR97 27-1041): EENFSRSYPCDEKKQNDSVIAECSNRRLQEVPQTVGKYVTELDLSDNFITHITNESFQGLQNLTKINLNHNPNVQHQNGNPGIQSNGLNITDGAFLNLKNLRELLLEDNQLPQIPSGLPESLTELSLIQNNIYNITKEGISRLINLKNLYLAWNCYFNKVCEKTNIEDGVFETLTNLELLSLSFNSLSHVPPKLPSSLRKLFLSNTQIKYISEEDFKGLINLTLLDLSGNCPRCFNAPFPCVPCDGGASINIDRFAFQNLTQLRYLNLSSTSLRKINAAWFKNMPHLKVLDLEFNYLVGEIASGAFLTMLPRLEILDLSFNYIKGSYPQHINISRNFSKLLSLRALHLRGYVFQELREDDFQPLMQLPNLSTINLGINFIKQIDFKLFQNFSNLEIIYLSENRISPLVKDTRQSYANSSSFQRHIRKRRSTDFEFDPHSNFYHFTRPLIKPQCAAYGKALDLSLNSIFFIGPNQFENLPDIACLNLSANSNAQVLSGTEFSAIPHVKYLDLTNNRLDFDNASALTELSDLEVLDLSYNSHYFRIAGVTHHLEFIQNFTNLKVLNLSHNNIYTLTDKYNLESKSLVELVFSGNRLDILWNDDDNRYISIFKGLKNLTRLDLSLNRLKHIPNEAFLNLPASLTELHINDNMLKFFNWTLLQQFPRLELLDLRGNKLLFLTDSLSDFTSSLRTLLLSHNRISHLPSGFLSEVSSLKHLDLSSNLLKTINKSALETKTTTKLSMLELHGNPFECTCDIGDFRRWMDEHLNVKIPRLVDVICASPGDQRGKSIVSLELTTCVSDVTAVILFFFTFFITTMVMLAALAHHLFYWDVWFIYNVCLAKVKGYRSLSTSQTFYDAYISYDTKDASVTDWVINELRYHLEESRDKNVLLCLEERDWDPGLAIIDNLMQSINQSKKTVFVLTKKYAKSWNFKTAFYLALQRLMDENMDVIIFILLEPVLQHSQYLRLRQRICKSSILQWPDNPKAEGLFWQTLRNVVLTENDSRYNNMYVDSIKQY
As to the kind of experiment: In vitro human TLR8 reporter assay (HEK-Blue, NF-kB/AP1-inducible SEAP). The following applies: at 62.5 μM. The method, then:
as §1

T1 sequence (Q96P20 whole entry): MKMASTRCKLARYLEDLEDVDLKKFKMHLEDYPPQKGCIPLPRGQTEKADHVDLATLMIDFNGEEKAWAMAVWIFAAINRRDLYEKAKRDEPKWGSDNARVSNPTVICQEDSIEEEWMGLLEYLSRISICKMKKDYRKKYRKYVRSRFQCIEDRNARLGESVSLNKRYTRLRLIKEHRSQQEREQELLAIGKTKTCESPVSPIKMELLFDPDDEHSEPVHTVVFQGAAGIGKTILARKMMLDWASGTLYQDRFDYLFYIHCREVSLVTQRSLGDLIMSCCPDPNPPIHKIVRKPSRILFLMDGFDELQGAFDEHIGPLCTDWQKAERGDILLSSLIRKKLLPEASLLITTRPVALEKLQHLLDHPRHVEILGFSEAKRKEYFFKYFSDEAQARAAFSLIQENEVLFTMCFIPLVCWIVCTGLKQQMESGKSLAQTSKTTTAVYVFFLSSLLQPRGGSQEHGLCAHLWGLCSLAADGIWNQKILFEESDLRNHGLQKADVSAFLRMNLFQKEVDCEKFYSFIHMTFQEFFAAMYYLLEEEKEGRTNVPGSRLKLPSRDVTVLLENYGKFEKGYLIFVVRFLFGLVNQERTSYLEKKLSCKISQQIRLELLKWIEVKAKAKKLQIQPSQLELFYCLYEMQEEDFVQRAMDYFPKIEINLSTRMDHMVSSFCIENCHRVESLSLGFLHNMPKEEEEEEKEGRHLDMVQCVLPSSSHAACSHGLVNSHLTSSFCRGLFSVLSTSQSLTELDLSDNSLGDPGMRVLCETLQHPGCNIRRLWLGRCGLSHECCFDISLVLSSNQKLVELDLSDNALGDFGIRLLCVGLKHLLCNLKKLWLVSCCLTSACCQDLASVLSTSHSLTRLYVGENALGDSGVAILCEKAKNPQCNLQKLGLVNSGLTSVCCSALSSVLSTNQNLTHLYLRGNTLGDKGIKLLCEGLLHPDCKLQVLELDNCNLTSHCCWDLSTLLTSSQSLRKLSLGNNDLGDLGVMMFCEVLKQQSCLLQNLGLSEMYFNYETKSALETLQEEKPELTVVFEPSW

In the case of `CCCC(CCO)Nc1nc(N)nc2cc(-c3ccn[nH]3)ccc12` (single isomer, unassigned) [Example 97, 3-((2-amino-7-(1H-pyrazol-5-yl)quinazolin-4-yl)amino)hexan-1-ol], the figures for the EC50 at NLRP3 and on human TLR7 were 710 nM and 1000 to 20000 nM, respectively.

Regarding `CCCCCNc1nc(N)nc2cc(-c3ccn[nH]3)ccc12` [Example 93], the EC50 on NLRP3 is 270 nM; at human TLR7, 1000 to 20000 nM.

Turning to `CCCCCNc1nc(N)nc2cc(-c3cc[nH]n3)cc(F)c12` [Example 125], the EC50 on NLRP3 was 710 nM; on human TLR7, 1000 to 20000 nM.

`COCC(COC)Nc1nc(N)nc2cc(-c3ccn[nH]3)ccc12` [Example 79]: the figures for the EC50 on NLRP3 and at human TLR7 were 1200 nM and 20000 to 100000 nM, respectively.

For the compound `CCCC(CCO)Nc1nc(N)nc2cc(-c3ccn[nH]3)ccc12` (racemic) [Example 96, rac-3-((2-amino-7-(1H-pyrazol-5-yl)quinazolin-4-yl)amino)hexan-1-ol], the EC50 on NLRP3 was 690 nM; at human TLR7, 1000 to 20000 nM.

`CCCCC(CCO)Nc1nc(N)nc2cc(-c3ccn[nH]3)ccc12` (single isomer, unassigned) [Example 100, 3-((2-amino-7-(1H-pyrazol-5-yl)quinazolin-4-yl)amino)heptan-1-ol]: the figures for the EC50 on NLRP3 and at human TLR7 were 450 nM and 1000 to 20000 nM, respectively.

On to `Cn1c(CCNc2nc(N)nc3cc(-c4ccn[nH]4)ccc23)nc2ccccc21` [Example 165], for which, at NLRP3, the midpoint of the response, the EC50, lay at 4120 nM. In addition, the TLR8 activity at human TLR8 is less than 50%.

As for `CCCCC(CCO)Nc1nc(N)nc2cc(-c3ccn[nH]3)ccc12` (racemic) [Example 99, rac-3-((2-amino-7-(1H-pyrazol-5-yl)quinazolin-4-yl)amino)heptan-1-ol], the EC50 on NLRP3 was 740 nM; on human TLR7, 1000 to 20000 nM.

In the case of `CCCCNc1nc(N)nc2cc(-c3ccn[nH]3)ccc12` [Example 92], the EC50 on NLRP3 is 200 nM; on human TLR7, greater than 1000 nM.

`Nc1nc(NCC2CCC(=O)N2)c2ccc(-c3ccn[nH]3)cc2n1` (single isomer, unassigned) [Example 6, 5-(((2-amino-7-(1H-pyrazol-5-yl)quinazolin-4-yl)amino)methyl)pyrrolidin-2-one]: the EC50 on NLRP3 was 2110 nM.

On NLRP3, `Nc1nc(NCCCO)c2ccc(-c3ccn[nH]3)cc2n1` [Example 14, 3-((2-amino-7-(1H-pyrazol-3-yl)quinazolin-4-yl)amino)propan-1-ol] returned an EC50 of 370 nM.

Regarding `Nc1nc(NCC2CC2(F)F)c2ccc(-c3cc[nH]n3)cc2n1` (single isomer, unassigned) [Example 198, N4-((2,2-Difluorocyclopropyl)methyl)-7-(1H-pyrazol-3-yl)quinazoline-2,4-diamine], at NLRP3, the EC50 was determined as 70 nM.

Compound `Nc1nc(NC[C@@H]2CCCC[C@@H]2O)c2ccc(-c3ccn[nH]3)cc2n1` (racemic) [Example 77] yielded an EC50 at NLRP3 of 650 nM.

With `Nc1nc(NC2CCS(=O)(=O)CC2)c2ccc(-c3ccn[nH]3)cc2n1` [Example 55], the EC50 on NLRP3 was 19700 nM.

In turn, `Nc1nc(Nc2cc(CCO)[nH]n2)c2ccc(-c3ccn[nH]3)cc2n1` [Example 116] displayed an EC50 on NLRP3 of 500 nM.

Regarding `Nc1nc(N[C@H]2COC[C@@H](O)C2)c2ccc(-c3ccn[nH]3)cc2n1` (single isomer, unassigned) [Example 12], the EC50 on NLRP3 stood at 3920 nM.

For the compound `Nc1nc(NCc2ccno2)c2ccc(-c3ccn[nH]3)cc2n1` [Example 71], the midpoint of the response on NLRP3, the EC50, lay at 640 nM.

Consider `Nc1nc(N[C@H]2C[C@H](CO)C2)c2ccc(-c3ccn[nH]3)cc2n1` [Example 176], for which, on NLRP3, the EC50 was determined as 90 nM.

Consider `Nc1nc(NCc2cnc[nH]2)c2ccc(-c3ccn[nH]3)cc2n1` [Example 87], for which a half-maximal effect on NLRP3 (EC50) was put at 1630 nM.

As to `Nc1nc(NCCc2cnc[nH]2)c2ccc(-c3ccn[nH]3)cc2n1` [Example 148], the EC50 on NLRP3 was 510 nM.

For the compound `Nc1nc(Nc2ccccc2)c2ccc(-c3ccn[nH]3)cc2n1` [Example 111], the EC50 on NLRP3 is 400 nM.

As for `Nc1nc(NC[C@@H](O)CO)c2ccc(-c3ccn[nH]3)cc2n1` [Example 69], on NLRP3, the EC50 is 1860 nM.
